In patent US8580918B2, “Peptidic GLP-2 agonists” (Ferring B.V., priority 2009, dated 2013):
Where a SMILES comes first, the peptide text is derived from it. [ ]: non-standard residue; d: D form. dPhe(3-Cl) = N[C@H](Cc1cccc(Cl)c1)C(=O)O; dPhe(2-Cl) = N[C@H](Cc1ccccc1Cl)C(=O)O; d2Thi = N[C@H](Cc1cccs1)C(=O)O; d3Thi = N[C@H](Cc1ccsc1)C(=O)O; Nle = CCCC[C@H](N)C(=O)O

Assay: Pharmacokinetics in rats after intravenous bolus injection (systemic clearance)
Assay type: in vivo
Conditions: rat, plasma, 0.2 mg FB/kg, adult male Sprague-Dawley rats, i.v. bolus, dose 0.20 mg FB/kg, read-out: CL (ml/kg/min) Average
How it was run: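 Adult male Sprague-Dawley rats (3-4, doubly cannulated) given IV jugular bolus at 0.1-1.0 mg/kg; serial carotid blood to K2EDTA plasma, LC/MS/MS quantitation. CL = dose/kg divided by AUC∞ (noncompartmental, trapezoid); mean ± SD.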

SMILES	clearance [mL/kg/min]
CCCC[C@H](NC(=O)[C@H](CCC(=O)O)NC(=O)[C@H](CC(=O)O)NC(=O)[C@H](CO)NC(=O)[C@H](Cc1ccccc1)NC(=O)[C@H](CO)NC(=O)CNC(=O)[C@H](CC(=O)O)NC(=O)CNC(=O)[C@@H](N)Cc1c[nH]cn1)C(=O)N[C@H](Cc1cccs1)C(=O)N[C@H](C(=O)N[C@H](C(=O)N[C@@H](CC(C)C)C(=O)N[C@@H](CC(=O)O)C(=O)N[C@@H](CC(N)=O)C(=O)N[C@@H](CC(C)C)C(=O)N[C@@H](C)C(=O)N[C@@H](C)C(=O)N[C@@H](CCCNC(=N)N)C(=O)N[C@@H](CC(=O)O)C(=O)N[C@@H](Cc1ccccc1)C(=O)N[C@H](C(=O)N[C@@H](CC(N)=O)C(=O)N[C@@H](Cc1c[nH]c2ccccc12)C(=O)N[C@@H](CC(C)C)C(=O)N[C@H](C(=O)N[C@@H](CCC(N)=O)C(=O)N[C@H](C(=O)N[C@@H](CCCCN)C(N)=O)[C@@H](C)O)[C@@H](C)CC)[C@@H](C)CC)[C@@H](C)CC)[C@@H](C)O [Compound 32, [Gly2,Nle10,D-Thi11] hGLP-2 (1-30)-NH2] (H-HGDGSFSDE[Nle][d2Thi]TILDNLAARDFINWLIQTK-NH2)	1.1
CCCC[C@H](NC(=O)[C@H](CCC(=O)O)NC(=O)[C@H](CC(=O)O)NC(=O)[C@H](CO)NC(=O)[C@H](Cc1ccccc1)NC(=O)[C@H](CO)NC(=O)CNC(=O)[C@H](CC(=O)O)NC(=O)CNC(=O)[C@@H](N)Cc1c[nH]cn1)C(=O)N[C@H](Cc1cccs1)C(=O)N[C@H](C(=O)N[C@H](C(=O)N[C@@H](CC(C)C)C(=O)N[C@@H](CC(=O)O)C(=O)N[C@@H](CC(C)C)C(=O)N[C@@H](CC(C)C)C(=O)N[C@@H](C)C(=O)N[C@@H](C)C(=O)N[C@@H](CCCNC(=N)N)C(=O)N[C@@H](CC(=O)O)C(=O)N[C@@H](Cc1ccccc1)C(=O)N[C@H](C(=O)N[C@@H](CC(N)=O)C(=O)N[C@@H](Cc1c[nH]c2ccccc12)C(=O)N[C@@H](CC(C)C)C(=O)N[C@H](C(=O)N[C@@H](CCC(N)=O)C(=O)N[C@H](C(=O)N[C@@H](CCCCN)C(N)=O)[C@@H](C)O)[C@@H](C)CC)[C@@H](C)CC)[C@@H](C)CC)[C@@H](C)O [Compound 45, [Gly2,Nle10,D-Thi11,Leu16] hGLP-2 (1-30)-NH2] (H-HGDGSFSDE[Nle][d2Thi]TILDLLAARDFINWLIQTK-NH2)	0.33
CCCC[C@H](NC(=O)[C@H](CCC(=O)O)NC(=O)[C@H](CC(=O)O)NC(=O)[C@H](CO)NC(=O)[C@H](Cc1ccccc1)NC(=O)[C@H](CO)NC(=O)CNC(=O)[C@H](CC(=O)O)NC(=O)CNC(=O)[C@@H](N)Cc1cnc[nH]1)C(=O)N[C@H](Cc1cccs1)C(=O)N[C@H](C(=O)N[C@H](C(=O)N[C@@H](CC(C)C)C(=O)N[C@@H](CC(=O)O)C(=O)N[C@@H](Cc1ccccc1)C(=O)N[C@@H](CC(C)C)C(=O)N[C@@H](C)C(=O)N[C@@H](C)C(=O)N[C@@H](CCCNC(=N)N)C(=O)N[C@@H](CC(=O)O)C(=O)N[C@@H](Cc1ccccc1)C(=O)N[C@H](C(=O)N[C@@H](CC(N)=O)C(=O)N[C@@H](Cc1c[nH]c2ccccc12)C(=O)N[C@@H](CC(C)C)C(=O)N[C@H](C(=O)N[C@@H](CCC(N)=O)C(=O)N[C@H](C(=O)N[C@@H](CCCCN)C(N)=O)[C@@H](C)O)[C@@H](C)CC)[C@@H](C)CC)[C@@H](C)CC)[C@@H](C)O [Compound 46, [Gly2,Nle10,D-Thi11,Phe16] hGLP-2 (1-30)-NH2] (H-HGDGSFSDE[Nle][d2Thi]TILDFLAARDFINWLIQTK-NH2)	0.26
CCCC[C@H](NC(=O)[C@H](CCC(=O)O)NC(=O)[C@H](CC(=O)O)NC(=O)[C@H](CO)NC(=O)[C@H](Cc1ccccc1)NC(=O)[C@H](CO)NC(=O)CNC(=O)[C@H](CC(=O)O)NC(=O)CNC(=O)[C@@H](N)Cc1c[nH]cn1)C(=O)N[C@H](Cc1ccccc1)C(=O)N[C@H](C(=O)N[C@H](C(=O)N[C@@H](CC(C)C)C(=O)N[C@@H](CC(=O)O)C(=O)N[C@@H](Cc1ccccc1)C(=O)N[C@@H](CC(C)C)C(=O)N[C@@H](C)C(=O)N[C@@H](C)C(=O)N[C@@H](CCCNC(=N)N)C(=O)N[C@@H](CC(=O)O)C(=O)N[C@@H](Cc1ccccc1)C(=O)N[C@H](C(=O)N[C@@H](CC(N)=O)C(=O)N[C@@H](Cc1c[nH]c2ccccc12)C(=O)N[C@@H](CC(C)C)C(=O)N[C@H](C(=O)N[C@@H](CCC(N)=O)C(=O)N[C@H](C(=O)N[C@@H](CCCCN)C(N)=O)[C@@H](C)O)[C@@H](C)CC)[C@@H](C)CC)[C@@H](C)CC)[C@@H](C)O [Compound 47, [Gly2,Nle10,D-Phe11,Phe16] hGLP-2 (1-30)-NH2] (H-HGDGSFSDE[Nle][dF]TILDFLAARDFINWLIQTK-NH2)	0.3
CCCC[C@H](NC(=O)[C@H](CCC(=O)O)NC(=O)[C@H](CC(=O)O)NC(=O)[C@H](CO)NC(=O)[C@H](Cc1ccccc1)NC(=O)[C@H](CO)NC(=O)CNC(=O)[C@H](CC(=O)O)NC(=O)CNC(=O)[C@@H](N)Cc1cnc[nH]1)C(=O)N[C@H](Cc1ccccc1)C(=O)N[C@H](C(=O)N[C@H](C(=O)N[C@@H](CC(C)C)C(=O)N[C@@H](CC(=O)O)C(=O)N[C@@H](CC(C)C)C(=O)N[C@@H](CC(C)C)C(=O)N[C@@H](C)C(=O)N[C@@H](C)C(=O)N[C@@H](CCCNC(=N)N)C(=O)N[C@@H](CC(=O)O)C(=O)N[C@@H](Cc1ccccc1)C(=O)N[C@H](C(=O)N[C@@H](CC(N)=O)C(=O)N[C@@H](Cc1c[nH]c2ccccc12)C(=O)N[C@@H](CC(C)C)C(=O)N[C@H](C(=O)N[C@@H](CCC(N)=O)C(=O)N[C@H](C(=O)N[C@@H](CCCCN)C(N)=O)[C@@H](C)O)[C@@H](C)CC)[C@@H](C)CC)[C@@H](C)CC)[C@@H](C)O [Compound 48, [Gly2,Nle10,D-Phe11,Leu16] hGLP-2 (1-30)-NH2] (H-HGDGSFSDE[Nle][dF]TILDLLAARDFINWLIQTK-NH2)	0.37

Next, values leading:

clearance [mL/kg/min]	SMILES
4.9	CCCC[C@H](NC(=O)[C@H](CCC(=O)O)NC(=O)[C@H](CC(=O)O)NC(=O)[C@H](CO)NC(=O)[C@H](Cc1ccccc1)NC(=O)[C@H](CO)NC(=O)CNC(=O)[C@H](CC(=O)O)NC(=O)CNC(=O)[C@@H](N)Cc1c[nH]cn1)C(=O)N[C@H](Cc1ccc(O)cc1)C(=O)N[C@H](C(=O)N[C@H](C(=O)N[C@@H](CC(C)C)C(=O)N[C@@H](CC(=O)O)C(=O)N[C@@H](CC(N)=O)C(=O)N[C@@H](CC(C)C)C(=O)N[C@@H](C)C(=O)N[C@@H](C)C(=O)N[C@@H](CCCNC(=N)N)C(=O)N[C@@H](CC(=O)O)C(=O)N[C@@H](Cc1ccccc1)C(=O)N[C@H](C(=O)N[C@@H](CC(N)=O)C(=O)N[C@@H](Cc1c[nH]c2ccccc12)C(=O)N[C@@H](CC(C)C)C(=O)N[C@H](C(=O)N[C@@H](CCC(N)=O)C(=O)N[C@H](C(=O)N[C@@H](CCCCN)C(N)=O)[C@@H](C)O)[C@@H](C)CC)[C@@H](C)CC)[C@@H](C)CC)[C@@H](C)O [Compound 39, [Gly2,Nle10,D-Tyr11] hGLP-2 (1-30)-NH2] (H-HGDGSFSDE[Nle][dY]TILDNLAARDFINWLIQTK-NH2)
0.73	CCCC[C@H](NC(=O)[C@H](CCC(=O)O)NC(=O)[C@H](CC(=O)O)NC(=O)[C@H](CO)NC(=O)[C@H](Cc1ccccc1)NC(=O)[C@H](CO)NC(=O)CNC(=O)[C@H](CC(=O)O)NC(=O)CNC(=O)[C@@H](N)Cc1c[nH]cn1)C(=O)N[C@H](Cc1ccccc1Cl)C(=O)N[C@H](C(=O)N[C@H](C(=O)N[C@@H](CC(C)C)C(=O)N[C@@H](CC(=O)O)C(=O)N[C@@H](CC(N)=O)C(=O)N[C@@H](CC(C)C)C(=O)N[C@@H](C)C(=O)N[C@@H](C)C(=O)N[C@@H](CCCNC(=N)N)C(=O)N[C@@H](CC(=O)O)C(=O)N[C@@H](Cc1ccccc1)C(=O)N[C@H](C(=O)N[C@@H](CC(N)=O)C(=O)N[C@@H](Cc1c[nH]c2ccccc12)C(=O)N[C@@H](CC(C)C)C(=O)N[C@H](C(=O)N[C@@H](CCC(N)=O)C(=O)N[C@H](C(=O)N[C@@H](CCCCN)C(N)=O)[C@@H](C)O)[C@@H](C)CC)[C@@H](C)CC)[C@@H](C)CC)[C@@H](C)O [Compound 40, [Gly2,Nle10,D-2-Cpa11] hGLP-2 (1-30)-NH2] (H-HGDGSFSDE[Nle][dPhe(2-Cl)]TILDNLAARDFINWLIQTK-NH2)
1.3	CCCC[C@H](NC(=O)[C@H](CCC(=O)O)NC(=O)[C@H](CC(=O)O)NC(=O)[C@H](CO)NC(=O)[C@H](Cc1ccccc1)NC(=O)[C@H](CO)NC(=O)CNC(=O)[C@H](CC(=O)O)NC(=O)CNC(=O)[C@@H](N)Cc1c[nH]cn1)C(=O)N[C@H](Cc1ccsc1)C(=O)N[C@H](C(=O)N[C@H](C(=O)N[C@@H](CC(C)C)C(=O)N[C@@H](CC(=O)O)C(=O)N[C@@H](CC(N)=O)C(=O)N[C@@H](CC(C)C)C(=O)N[C@@H](C)C(=O)N[C@@H](C)C(=O)N[C@@H](CCCNC(=N)N)C(=O)N[C@@H](CC(=O)O)C(=O)N[C@@H](Cc1ccccc1)C(=O)N[C@H](C(=O)N[C@@H](CC(N)=O)C(=O)N[C@@H](Cc1c[nH]c2ccccc12)C(=O)N[C@@H](CC(C)C)C(=O)N[C@H](C(=O)N[C@@H](CCC(N)=O)C(=O)N[C@H](C(=O)N[C@@H](CCCCN)C(N)=O)[C@@H](C)O)[C@@H](C)CC)[C@@H](C)CC)[C@@H](C)CC)[C@@H](C)O [Compound 42, [Gly2,Nle10,D-3-Thi11] hGLP-2 (1-30)-NH2] (H-HGDGSFSDE[Nle][d3Thi]TILDNLAARDFINWLIQTK-NH2)
0.32	CCCC[C@H](NC(=O)[C@H](CCC(=O)O)NC(=O)[C@H](CC(=O)O)NC(=O)[C@H](CO)NC(=O)[C@H](Cc1ccccc1)NC(=O)[C@H](CO)NC(=O)CNC(=O)[C@H](CC(=O)O)NC(=O)CNC(=O)[C@@H](N)Cc1c[nH]cn1)C(=O)N[C@H](Cc1cccc(Cl)c1)C(=O)N[C@H](C(=O)N[C@H](C(=O)N[C@@H](CC(C)C)C(=O)N[C@@H](CC(=O)O)C(=O)N[C@@H](CC(N)=O)C(=O)N[C@@H](CC(C)C)C(=O)N[C@@H](C)C(=O)N[C@@H](C)C(=O)N[C@@H](CCCNC(=N)N)C(=O)N[C@@H](CC(=O)O)C(=O)N[C@@H](Cc1ccccc1)C(=O)N[C@H](C(=O)N[C@@H](CC(N)=O)C(=O)N[C@@H](Cc1c[nH]c2ccccc12)C(=O)N[C@@H](CC(C)C)C(=O)N[C@H](C(=O)N[C@@H](CCC(N)=O)C(=O)N[C@H](C(=O)N[C@@H](CCCCN)C(N)=O)[C@@H](C)O)[C@@H](C)CC)[C@@H](C)CC)[C@@H](C)CC)[C@@H](C)O [Compound 44, [Gly2,Nle10,D-3-Cpa11] hGLP-2 (1-30)-NH2] (H-HGDGSFSDE[Nle][dPhe(3-Cl)]TILDNLAARDFINWLIQTK-NH2)
